Test results taken from patent US8772480B2, “Inhibitors of PI3 kinase and/or mTOR” (priority 2009, dated 2014).

Tests used:
Type in all cases: biochemical
[1] = biological target: ProfilerPro Kinase Selectivity Assay Kit kinases (Homo sapiens, UniProt Q13188); conditions: MST2; 1 μM compound concentration
[2] = biological target: ProfilerPro Kinase Selectivity Assay Kit kinases (Homo sapiens, UniProt P48730); conditions: CK1 delta; 1 μM compound concentration
[3] = biological target: ProfilerPro Kinase Selectivity Assay Kit kinases (Homo sapiens, UniProt O14965); conditions: AURORA A; 1 μM compound concentration
[4] = biological target: ProfilerPro Kinase Selectivity Assay Kit kinases (Homo sapiens, UniProt P49137); conditions: MAPKAPK2; 1 μM compound concentration
[5] = biological target: ProfilerPro Kinase Selectivity Assay Kit kinases (Homo sapiens, UniProt P31749); conditions: AKT1; 1 μM compound concentration
[6] = biological target: ProfilerPro Kinase Selectivity Assay Kit kinases (Homo sapiens, UniProt Q15418); conditions: RSK1; 1 μM compound concentration
[7] = biological target: ProfilerPro Kinase Selectivity Assay Kit kinases (Homo sapiens, UniProt P24941); conditions: CDK2; 1 μM compound concentration
[8] = biological target: ProfilerPro Kinase Selectivity Assay Kit kinases (Homo sapiens, UniProt Q05513); conditions: PKC zeta; 1 μM compound concentration
[9] = biological target: ProfilerPro Kinase Selectivity Assay Kit kinases (Homo sapiens, UniProt Q9P1W9); conditions: PIM2; 1 μM compound concentration
[10] = biological target: ProfilerPro Kinase Selectivity Assay Kit kinases (Homo sapiens, UniProt P06213); conditions: INSR; 1 μM compound concentration
[11] = biological target: ProfilerPro Kinase Selectivity Assay Kit kinases (Homo sapiens, UniProt O14757); conditions: CHK1; 1 μM compound concentration
[12] = biological target: ProfilerPro Kinase Selectivity Assay Kit kinases (Homo sapiens, UniProt P35968); conditions: KDR; 1 μM compound concentration
[13] = biological target: ProfilerPro Kinase Selectivity Assay Kit kinases (Homo sapiens, UniProt P17612); conditions: PKA alpha; 1 μM compound concentration
[14] = biological target: ProfilerPro Kinase Selectivity Assay Kit kinases (Homo sapiens, UniProt Q16566); conditions: CAMK4; 1 μM compound concentration
[15] = biological target: ProfilerPro Kinase Selectivity Assay Kit kinases (Homo sapiens, UniProt O75116); conditions: ROCK2; 1 μM compound concentration
[16] = biological target: ProfilerPro Kinase Selectivity Assay Kit kinases (Homo sapiens, UniProt Q06187); conditions: BTK; 1 μM compound concentration
Chain of ProfilerPro Kinase Selectivity Assay Kit kinases (Homo sapiens, UniProt Q06187) (Q06187 2-659 limits assumed): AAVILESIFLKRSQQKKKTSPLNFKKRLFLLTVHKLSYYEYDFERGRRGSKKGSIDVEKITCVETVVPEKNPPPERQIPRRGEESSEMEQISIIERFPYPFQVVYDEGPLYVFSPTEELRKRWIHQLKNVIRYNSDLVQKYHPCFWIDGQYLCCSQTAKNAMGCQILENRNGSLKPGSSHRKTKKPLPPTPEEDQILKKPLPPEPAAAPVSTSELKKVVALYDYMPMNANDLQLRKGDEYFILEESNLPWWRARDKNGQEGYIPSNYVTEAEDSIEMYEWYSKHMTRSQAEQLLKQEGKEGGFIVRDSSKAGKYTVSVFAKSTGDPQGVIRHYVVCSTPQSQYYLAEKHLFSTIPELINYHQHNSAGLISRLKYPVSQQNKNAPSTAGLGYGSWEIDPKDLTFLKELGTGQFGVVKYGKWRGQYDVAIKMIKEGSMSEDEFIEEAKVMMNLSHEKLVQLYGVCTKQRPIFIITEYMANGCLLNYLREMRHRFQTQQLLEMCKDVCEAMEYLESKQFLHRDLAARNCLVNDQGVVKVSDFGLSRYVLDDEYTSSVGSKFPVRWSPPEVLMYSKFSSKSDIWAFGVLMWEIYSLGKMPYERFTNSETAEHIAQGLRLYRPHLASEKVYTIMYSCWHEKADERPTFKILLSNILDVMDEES

[17] = biological target: ProfilerPro Kinase Selectivity Assay Kit kinases (Homo sapiens, UniProt P43405); conditions: SYK; 1 μM compound concentration
[18] = biological target: ProfilerPro Kinase Selectivity Assay Kit kinases (Homo sapiens, UniProt P31751); conditions: AKT2; 1 μM compound concentration
[19] = biological target: ProfilerPro Kinase Selectivity Assay Kit kinases (Homo sapiens, UniProt O96017); conditions: CHK2; 1 μM compound concentration
[20] = biological target: ProfilerPro Kinase Selectivity Assay Kit kinases (Homo sapiens, UniProt O95819); conditions: HGK; 1 μM compound concentration
Chain of ProfilerPro Kinase Selectivity Assay Kit kinases (Homo sapiens, UniProt O95819) (O95819 2-1239 limits assumed): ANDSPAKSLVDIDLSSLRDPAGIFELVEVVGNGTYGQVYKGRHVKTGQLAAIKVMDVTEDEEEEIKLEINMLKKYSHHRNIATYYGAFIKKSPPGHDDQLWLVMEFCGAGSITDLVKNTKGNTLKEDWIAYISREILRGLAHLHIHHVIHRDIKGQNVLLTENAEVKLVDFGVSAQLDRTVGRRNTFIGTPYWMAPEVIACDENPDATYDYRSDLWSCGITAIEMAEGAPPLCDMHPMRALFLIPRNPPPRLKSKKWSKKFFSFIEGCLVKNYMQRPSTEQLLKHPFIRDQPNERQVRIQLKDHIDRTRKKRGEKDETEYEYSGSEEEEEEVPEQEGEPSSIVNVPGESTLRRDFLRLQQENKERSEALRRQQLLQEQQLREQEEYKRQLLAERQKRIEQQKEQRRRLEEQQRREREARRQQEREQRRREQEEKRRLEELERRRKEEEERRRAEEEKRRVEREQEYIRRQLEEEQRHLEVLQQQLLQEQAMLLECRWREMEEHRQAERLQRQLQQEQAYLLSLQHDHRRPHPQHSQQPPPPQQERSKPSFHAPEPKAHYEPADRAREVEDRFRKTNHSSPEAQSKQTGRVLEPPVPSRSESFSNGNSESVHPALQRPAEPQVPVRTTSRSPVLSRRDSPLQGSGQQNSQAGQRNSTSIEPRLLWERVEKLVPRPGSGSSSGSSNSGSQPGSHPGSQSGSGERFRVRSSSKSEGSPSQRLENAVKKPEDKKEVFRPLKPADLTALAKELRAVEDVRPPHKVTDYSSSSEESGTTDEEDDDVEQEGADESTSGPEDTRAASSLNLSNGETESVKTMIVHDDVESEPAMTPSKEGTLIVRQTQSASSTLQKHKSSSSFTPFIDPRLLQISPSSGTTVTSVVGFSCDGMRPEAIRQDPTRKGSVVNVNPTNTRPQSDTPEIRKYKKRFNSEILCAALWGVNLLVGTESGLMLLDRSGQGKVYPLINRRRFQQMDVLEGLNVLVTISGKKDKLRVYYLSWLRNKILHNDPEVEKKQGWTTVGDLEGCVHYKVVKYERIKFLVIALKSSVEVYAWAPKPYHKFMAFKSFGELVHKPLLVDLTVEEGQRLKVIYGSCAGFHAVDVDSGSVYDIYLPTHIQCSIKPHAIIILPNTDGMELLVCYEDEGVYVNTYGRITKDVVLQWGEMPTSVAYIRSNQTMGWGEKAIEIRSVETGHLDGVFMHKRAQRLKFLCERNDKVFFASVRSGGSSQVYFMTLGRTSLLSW

[21] = biological target: ProfilerPro Kinase Selectivity Assay Kit kinases (Homo sapiens, UniProt Q13177); conditions: PAK2; 1 μM compound concentration
Chain of ProfilerPro Kinase Selectivity Assay Kit kinases (Homo sapiens, UniProt Q13177) (Q13177 2-524 limits assumed): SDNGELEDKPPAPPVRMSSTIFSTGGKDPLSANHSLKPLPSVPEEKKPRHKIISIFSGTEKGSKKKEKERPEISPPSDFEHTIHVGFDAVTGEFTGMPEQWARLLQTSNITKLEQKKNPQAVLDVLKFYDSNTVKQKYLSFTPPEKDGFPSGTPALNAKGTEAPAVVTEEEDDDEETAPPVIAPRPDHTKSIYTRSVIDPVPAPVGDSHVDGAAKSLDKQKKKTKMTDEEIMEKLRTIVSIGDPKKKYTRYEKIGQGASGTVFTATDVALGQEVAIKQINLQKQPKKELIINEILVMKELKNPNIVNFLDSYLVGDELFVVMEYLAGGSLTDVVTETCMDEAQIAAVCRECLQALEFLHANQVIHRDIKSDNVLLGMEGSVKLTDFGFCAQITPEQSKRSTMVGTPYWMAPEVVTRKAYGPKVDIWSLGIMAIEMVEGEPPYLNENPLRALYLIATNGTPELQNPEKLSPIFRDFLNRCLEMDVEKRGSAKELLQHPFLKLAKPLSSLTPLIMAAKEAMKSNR

[22] = biological target: ProfilerPro Kinase Selectivity Assay Kit kinases (Homo sapiens, UniProt P08069); conditions: IGF1R; 1 μM compound concentration
[23] = biological target: ProfilerPro Kinase Selectivity Assay Kit kinases (Homo sapiens, UniProt Q9P0L2); conditions: MARK1; 1 μM compound concentration
[24] = biological target: ProfilerPro Kinase Selectivity Assay Kit kinases (Homo sapiens, UniProt Q8IW41); conditions: PRAK; 1 μM compound concentration
[25] = biological target: ProfilerPro Kinase Selectivity Assay Kit kinases (Homo sapiens, UniProt P06239); conditions: LCK; 1 μM compound concentration
[26] = biological target: ProfilerPro Kinase Selectivity Assay Kit kinases (Homo sapiens, UniProt P36888); conditions: FLT3; 1 μM compound concentration
Chain of ProfilerPro Kinase Selectivity Assay Kit kinases (Homo sapiens, UniProt P36888) (P36888 27-993 limits assumed): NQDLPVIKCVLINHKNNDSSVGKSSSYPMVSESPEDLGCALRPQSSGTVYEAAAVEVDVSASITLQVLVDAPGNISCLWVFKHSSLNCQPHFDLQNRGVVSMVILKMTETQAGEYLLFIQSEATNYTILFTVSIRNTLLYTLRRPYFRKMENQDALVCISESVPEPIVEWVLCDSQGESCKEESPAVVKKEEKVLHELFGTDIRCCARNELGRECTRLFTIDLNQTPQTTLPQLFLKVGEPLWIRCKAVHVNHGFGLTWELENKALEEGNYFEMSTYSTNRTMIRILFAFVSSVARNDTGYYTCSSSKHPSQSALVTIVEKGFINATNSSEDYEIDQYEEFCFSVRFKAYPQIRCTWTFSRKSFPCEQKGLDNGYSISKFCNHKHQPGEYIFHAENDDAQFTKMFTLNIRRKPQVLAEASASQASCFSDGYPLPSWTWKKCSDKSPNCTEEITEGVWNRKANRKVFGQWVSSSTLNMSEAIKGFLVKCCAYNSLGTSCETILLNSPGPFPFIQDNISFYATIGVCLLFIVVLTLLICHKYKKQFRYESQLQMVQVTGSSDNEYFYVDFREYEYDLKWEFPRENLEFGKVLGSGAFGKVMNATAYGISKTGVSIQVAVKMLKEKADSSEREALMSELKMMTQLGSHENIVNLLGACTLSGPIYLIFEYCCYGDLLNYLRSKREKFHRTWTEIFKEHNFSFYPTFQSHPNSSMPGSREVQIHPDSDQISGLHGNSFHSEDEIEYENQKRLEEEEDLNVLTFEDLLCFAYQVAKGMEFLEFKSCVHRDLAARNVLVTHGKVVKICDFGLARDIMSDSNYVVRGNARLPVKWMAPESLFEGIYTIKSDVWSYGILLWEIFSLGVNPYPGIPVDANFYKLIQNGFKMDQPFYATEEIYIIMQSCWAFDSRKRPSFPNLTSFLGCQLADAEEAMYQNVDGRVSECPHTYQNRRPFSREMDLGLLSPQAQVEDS

[27] = biological target: ProfilerPro Kinase Selectivity Assay Kit kinases (Homo sapiens, UniProt P07948); conditions: LYN; 1 μM compound concentration
[28] = biological target: ProfilerPro Kinase Selectivity Assay Kit kinases (Homo sapiens, UniProt Q13627); conditions: DYRK1a; 1 μM compound concentration
[29] = biological target: ProfilerPro Kinase Selectivity Assay Kit kinases (Homo sapiens, UniProt P06241); conditions: FYN; 1 μM compound concentration
Chain of ProfilerPro Kinase Selectivity Assay Kit kinases (Homo sapiens, UniProt P06241) (P06241 2-537 limits assumed): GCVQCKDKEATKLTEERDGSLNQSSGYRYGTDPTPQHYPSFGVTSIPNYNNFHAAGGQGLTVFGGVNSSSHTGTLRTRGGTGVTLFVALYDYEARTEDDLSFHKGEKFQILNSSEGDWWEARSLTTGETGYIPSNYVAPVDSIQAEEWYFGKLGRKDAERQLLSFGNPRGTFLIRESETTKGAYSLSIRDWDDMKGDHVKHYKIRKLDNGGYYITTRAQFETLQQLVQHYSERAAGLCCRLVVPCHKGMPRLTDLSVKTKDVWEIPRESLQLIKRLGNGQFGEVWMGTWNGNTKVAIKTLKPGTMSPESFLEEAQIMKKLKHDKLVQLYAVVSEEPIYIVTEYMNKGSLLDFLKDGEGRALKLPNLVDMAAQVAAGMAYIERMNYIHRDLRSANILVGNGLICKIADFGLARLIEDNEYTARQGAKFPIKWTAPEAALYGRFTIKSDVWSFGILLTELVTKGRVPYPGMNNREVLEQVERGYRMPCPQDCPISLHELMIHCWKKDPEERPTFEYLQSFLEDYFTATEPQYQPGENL

[30] = biological target: ProfilerPro Kinase Selectivity Assay Kit kinases (Homo sapiens, UniProt P28482); conditions: ERK2; 1 μM compound concentration
Chain of ProfilerPro Kinase Selectivity Assay Kit kinases (Homo sapiens, UniProt P28482) (P28482 2-360 limits assumed): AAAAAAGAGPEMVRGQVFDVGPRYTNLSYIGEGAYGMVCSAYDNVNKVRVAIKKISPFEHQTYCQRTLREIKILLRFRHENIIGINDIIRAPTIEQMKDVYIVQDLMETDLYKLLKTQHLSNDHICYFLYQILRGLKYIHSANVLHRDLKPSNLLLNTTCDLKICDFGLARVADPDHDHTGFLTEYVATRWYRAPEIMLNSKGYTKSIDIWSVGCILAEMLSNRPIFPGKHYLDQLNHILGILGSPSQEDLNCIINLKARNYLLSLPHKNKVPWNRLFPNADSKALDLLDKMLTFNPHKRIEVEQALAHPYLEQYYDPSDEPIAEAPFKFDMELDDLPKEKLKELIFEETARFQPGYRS

[31] = biological target: ProfilerPro Kinase Selectivity Assay Kit kinases (Homo sapiens, UniProt P12931); conditions: SRC; 1 μM compound concentration
Chain of ProfilerPro Kinase Selectivity Assay Kit kinases (Homo sapiens, UniProt P12931) (P12931 2-536 limits assumed): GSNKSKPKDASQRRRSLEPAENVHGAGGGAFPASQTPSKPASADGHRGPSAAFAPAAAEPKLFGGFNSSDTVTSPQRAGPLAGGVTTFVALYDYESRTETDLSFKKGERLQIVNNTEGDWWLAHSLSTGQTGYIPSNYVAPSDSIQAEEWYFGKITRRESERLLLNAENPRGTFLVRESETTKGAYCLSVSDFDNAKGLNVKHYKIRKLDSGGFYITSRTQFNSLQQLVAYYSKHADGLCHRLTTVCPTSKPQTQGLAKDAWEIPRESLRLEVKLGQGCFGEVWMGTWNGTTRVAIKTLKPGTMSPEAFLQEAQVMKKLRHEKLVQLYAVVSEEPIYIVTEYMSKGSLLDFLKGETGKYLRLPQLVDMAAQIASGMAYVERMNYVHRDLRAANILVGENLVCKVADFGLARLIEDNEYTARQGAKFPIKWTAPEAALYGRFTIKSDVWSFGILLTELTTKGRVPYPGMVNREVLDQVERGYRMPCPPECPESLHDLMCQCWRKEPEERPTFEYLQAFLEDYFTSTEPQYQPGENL

| POC (Percent of control) MST2 [1] | POC (Percent of control) CK1 delta [2] | POC (Percent of control) AURORA A [3] | POC (Percent of control) MAPKAPK2 [4] | POC (Percent of control) AKT1 [5] | POC (Percent of control) RSK1 [6] | POC (Percent of control) CDK2 [7] | POC (Percent of control) PKC zeta [8] | POC (Percent of control) PIM2 [9] | POC (Percent of control) INSR [10] | POC (Percent of control) CHK1 [11] | POC (Percent of control) KDR [12] | POC (Percent of control) PKA alpha [13] | POC (Percent of control) CAMK4 [14] | POC (Percent of control) ROCK2 [15] | POC (Percent of control) BTK [16] | POC (Percent of control) SYK [17] | POC (Percent of control) AKT2 [18] | POC (Percent of control) CHK2 [19] | POC (Percent of control) HGK [20] | SMILES | further results |
| --- | --- | --- | --- | --- | --- | --- | --- | --- | --- | --- | --- | --- | --- | --- | --- | --- | --- | --- | --- | --- | --- |
| 96 POC | 35 POC | 84 POC | 93 POC | 103 POC | 96 POC | 91 POC | 102 POC | 101 POC | 90 POC | 97 POC | 89 POC | 97 POC | 71 POC | 98 POC | 99 POC | 63 POC | 93 POC | 94 POC | 92 POC | c1cnc(Nc2cccc3[nH]ncc23)c(-c2ncnc3[nH]cnc23)c1 [Example 18, N-(3-(9H-Purin-6-yl)Pyridin-2-yl)-1H-Indazol-4-Amine] | POC (Percent of control) PAK2 [21]: 96 POC; POC (Percent of control) IGF1R [22]: 64 POC; POC (Percent of control) MARK1 [23]: 112 POC; POC (Percent of control) PRAK [24]: 95 POC; POC (Percent of control) LCK [25]: 72 POC; POC (Percent of control) FLT3 [26]: 106 POC; POC (Percent of control) LYN [27]: 81 POC; POC (Percent of control) DYRK1a [28]: 59 POC; POC (Percent of control) FYN [29]: 86 POC; POC (Percent of control) ERK2 [30]: 96 POC; POC (Percent of control) SRC [31]: 93 POC |
| 98 POC | 97 POC | 102 POC | 100 POC | 109 POC | 100 POC | 96 POC | 94 POC | 92 POC | 96 POC | 101 POC | 97 POC | 102 POC | 95 POC | 101 POC | 99 POC | 97 POC | 96 POC | 98 POC | 94 POC | CCc1cnc(Nc2ccc(OC)nc2)c(-c2nc(C)nc3[nH]cnc23)c1 [Example 74, 5-ethyl-N-(6-methoxypyridin-3-yl)-3-(2-methyl-9H-purin-6-yl)pyridin-2-amine] | POC (Percent of control) PAK2 [21]: 94 POC; POC (Percent of control) IGF1R [22]: 93 POC; POC (Percent of control) MARK1 [23]: 111 POC; POC (Percent of control) PRAK [24]: 97 POC; POC (Percent of control) LCK [25]: 98 POC; POC (Percent of control) FLT3 [26]: 122 POC; POC (Percent of control) LYN [27]: 97 POC; POC (Percent of control) DYRK1a [28]: 100 POC; POC (Percent of control) FYN [29]: 104 POC; POC (Percent of control) ERK2 [30]: 101 POC; POC (Percent of control) SRC [31]: 99 POC |
